In patent US20050048127A1, “Small spherical particles of low molecular weight organic molecules and methods of preparation and use thereof” (priority 2003, published 2005):

Tests used:
[1] = Particle morphology and size by scanning electron microscopy (SEM); type: physicochemical; conditions: broad distribution, some particles larger than upper value
Method: Particle morphology for the following examples was obtained using Scanning Electron Microscopy (SEM, FEI Quanta 200, Hilsboro, Oreg.). The sample was prepared for analysis by placing a small amount on carbon double-stick tape fixed to an aluminum sample mount. The sample was then sputter-coated using a Cressington sputter coater 108 Auto for 90 seconds and 20 mA. A second SEM instrument (Amray 1000, Bedford, Mass.) was used to obtain additional images of the small spherical particles, due to its higher resolution capabilities. Particle morphology for the following examples was obtained using Scanning Electron Microscopy (FEI Quanta 200, Hilsboro, Oreg.). FIG. 4 presents SEM of micronized budesonide starting material and FIG. 5 presents SEM of the resulting budesonide small spherical particles.

[2] = Formation of small spherical particles from first/second solvent mixtures on glass slide under nitrogen flow, graded by polarized light microscope; type: physicochemical; design: key: (+) = predominantly small spherical particles; (+/−) = a mixture of small spherical particles and non-spherical particles; (−) = predominantly non-spherical particles; ppt = the steroid precipitated out during addition of the second solvent
Source text: The ability to form small spherical particles of two steroids, beclomethasone dipropionate (BDP) and fluticasone propionate (FP) was examined in matrix experiments using acetone, ethanol, methanol, and methyl ethyl ketone (MEK) individually as the first solvents and water and heptane individually as the second solvents. The amount of second solvent added to the first solvent/steroid solution was varied as 0%, 10%, 20%, 30%, and 40% (v/v). MEK is not miscible with water and methanol is not miscible with heptane, so those combinations were not included in the experiment.
Either BDP or FP was weighed into a large screw cap glass tube and the solvent of choice was added (w/v) to yield a final concentration of 2 mg/mL. The tubes were vortexed and sonicated to completely dissolve the steroid. The sealed tubes containing these solutions were used as stock solutions for subsequent mixture with the appropriate second solvent. Immediately prior to use, an appropriate amount of the second solvent was slowly added to the first solvent/steroid solution while mixing to avoid premature precipitation. After adding the second solvent, the solutions were visually examined to ensure that premature precipitation had not occurred.
A fixture was constructed such that a 0.125-inch diameter orifice nozzle was positioned 1.75 inches above a standard glass microscope slide. Nitrogen gas was allowed to flow at 5 liters per minute through the nozzle and over the slide such that the flow direction of the gas was perpendicular to the surface of the slide. One or two drops of the test solution were placed on the slide directly under the orifice, and the nitrogen flow continued until the slide was dry (one to three minutes depending on the solution composition). Each slide was then examined under a polarized light microscope (Leica EPISTAR, Buffalo, N.Y.) using incident lighting. Each slide was graded for the presence of predominantly small spherical particles (+), a mixture of small spherical particles and non-spherical particles (+/−), and predominantly non-spherical particles (−). Variations in size and size distribution were observed between different test solutions.

[3] = first solvent MEK, 0% second solvent (2 mg/mL stock solution)
[4] = first solvent acetone, 0% second solvent (2 mg/mL stock solution)
[5] = first solvent acetone, 10% heptane
[6] = first solvent acetone, 10% water
[7] = first solvent acetone, 20% heptane
[8] = first solvent acetone, 20% water
[9] = first solvent acetone, 30% heptane
[10] = first solvent acetone, 30% water
[11] = first solvent acetone, 40% heptane
[12] = first solvent acetone, 40% water
[13] = first solvent ethanol, 0% second solvent (2 mg/mL stock solution)
[14] = first solvent ethanol, 10% heptane
[15] = first solvent ethanol, 10% water
[16] = first solvent ethanol, 20% heptane
[17] = first solvent ethanol, 20% water
[18] = first solvent ethanol, 30% heptane
[19] = first solvent ethanol, 30% water
[20] = first solvent ethanol, 40% heptane
[21] = first solvent ethanol, 40% water
[22] = first solvent methanol, 0% second solvent (2 mg/mL stock solution)
[23] = first solvent methanol, 10% water
[24] = first solvent methanol, 20% water
[25] = first solvent methanol, 30% water
[26] = first solvent methanol, 40% water

Row | Compound | Formation of small spherical particles [2, 3] | Formation of small spherical particles ([2]; first solvent MEK, 10% heptane) | Formation of small spherical particles ([2]; first solvent MEK, 20% heptane) | Formation of small spherical particles ([2]; first solvent MEK, 30% heptane) | Formation of small spherical particles ([2]; first solvent MEK, 40% heptane) | Formation of small spherical particles [2, 4] | Formation of small spherical particles [2, 5] | Formation of small spherical particles [2, 6] | Formation of small spherical particles [2, 7] | Formation of small spherical particles [2, 8] | Formation of small spherical particles [2, 9] | Formation of small spherical particles [2, 10] | Formation of small spherical particles [2, 11] | Formation of small spherical particles [2, 12] | Formation of small spherical particles [2, 13] | Formation of small spherical particles [2, 14] | Formation of small spherical particles [2, 15] | Formation of small spherical particles [2, 16] | Formation of small spherical particles [2, 17] | Formation of small spherical particles [2, 18] | also measured
1 | CCC(=O)OCC(=O)[C@@]1(OC(=O)CC)[C@@H](C)C[C@H]2[C@@H]3CCC4=CC(=O)C=C[C@]4(C)[C@@]3(Cl)[C@@H](O)C[C@@]21C [micronized BDP starting material, beclomethasone dipropionate] |  |  |  |  |  |  |  |  |  |  |  |  |  |  |  |  |  |  |  |  | particle size distribution [1]: 5-50 microns
2 | CCC(=O)OCC(=O)[C@@]1(OC(=O)CC)[C@@H](C)C[C@H]2[C@@H]3CCC4=CC(=O)C=C[C@]4(C)[C@@]3(Cl)[C@@H](O)C[C@@]21C [Beclomethasone dipropionate] | +/− | + | + | + | + | + | + | + | + | + | +/− | + | +/− | + | + | + | + | +/− | + | +/− | Formation of small spherical particles [2, 19]: +; Formation of small spherical particles [2, 20]: +/−; Formation of small spherical particles [2, 21]: +; Formation of small spherical particles [2, 22]: +; Formation of small spherical particles [2, 23]: +; Formation of small spherical particles [2, 24]: +; Formation of small spherical particles [2, 25]: +; Formation of small spherical particles [2, 26]: +
3 | CCC(=O)O[C@]1(C(=O)SCF)[C@H](C)C[C@H]2[C@@H]3C[C@H](F)C4=CC(=O)C=C[C@]4(C)[C@@]3(F)[C@@H](O)C[C@@]21C [Fluticasone propionate] | +/− | − | − | − | − | + | + | + | + | +/− | +/− | − | +/− | − | +/− | − | +/− | − | +/− | − | Formation of small spherical particles [2, 19]: −; Formation of small spherical particles [2, 20]: −; Formation of small spherical particles [2, 21]: −; Formation of small spherical particles [2, 22]: −; Formation of small spherical particles [2, 23]: −; Formation of small spherical particles [2, 24]: ppt; Formation of small spherical particles [2, 25]: ppt; Formation of small spherical particles [2, 26]: ppt
